Test results from ChEMBL document CHEMBL1201862, “PubChem BioAssay data set” (2004).
Active and inactive are the calls of the source. Rule as the data show it: actives have a measured IC50 and inactives only a lower limit.

How the values were obtained:
Type in all cases: functional
[1] = target: T1, Sentrin-specific protease 6 (Homo sapiens, UniProt Q9GZR1);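 also: Luminescence-based dose-response confirmatory assay of SENP6 inhibition, following up an ultra-high-throughput screen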
T1 sequence (Q9GZR1 whole entry): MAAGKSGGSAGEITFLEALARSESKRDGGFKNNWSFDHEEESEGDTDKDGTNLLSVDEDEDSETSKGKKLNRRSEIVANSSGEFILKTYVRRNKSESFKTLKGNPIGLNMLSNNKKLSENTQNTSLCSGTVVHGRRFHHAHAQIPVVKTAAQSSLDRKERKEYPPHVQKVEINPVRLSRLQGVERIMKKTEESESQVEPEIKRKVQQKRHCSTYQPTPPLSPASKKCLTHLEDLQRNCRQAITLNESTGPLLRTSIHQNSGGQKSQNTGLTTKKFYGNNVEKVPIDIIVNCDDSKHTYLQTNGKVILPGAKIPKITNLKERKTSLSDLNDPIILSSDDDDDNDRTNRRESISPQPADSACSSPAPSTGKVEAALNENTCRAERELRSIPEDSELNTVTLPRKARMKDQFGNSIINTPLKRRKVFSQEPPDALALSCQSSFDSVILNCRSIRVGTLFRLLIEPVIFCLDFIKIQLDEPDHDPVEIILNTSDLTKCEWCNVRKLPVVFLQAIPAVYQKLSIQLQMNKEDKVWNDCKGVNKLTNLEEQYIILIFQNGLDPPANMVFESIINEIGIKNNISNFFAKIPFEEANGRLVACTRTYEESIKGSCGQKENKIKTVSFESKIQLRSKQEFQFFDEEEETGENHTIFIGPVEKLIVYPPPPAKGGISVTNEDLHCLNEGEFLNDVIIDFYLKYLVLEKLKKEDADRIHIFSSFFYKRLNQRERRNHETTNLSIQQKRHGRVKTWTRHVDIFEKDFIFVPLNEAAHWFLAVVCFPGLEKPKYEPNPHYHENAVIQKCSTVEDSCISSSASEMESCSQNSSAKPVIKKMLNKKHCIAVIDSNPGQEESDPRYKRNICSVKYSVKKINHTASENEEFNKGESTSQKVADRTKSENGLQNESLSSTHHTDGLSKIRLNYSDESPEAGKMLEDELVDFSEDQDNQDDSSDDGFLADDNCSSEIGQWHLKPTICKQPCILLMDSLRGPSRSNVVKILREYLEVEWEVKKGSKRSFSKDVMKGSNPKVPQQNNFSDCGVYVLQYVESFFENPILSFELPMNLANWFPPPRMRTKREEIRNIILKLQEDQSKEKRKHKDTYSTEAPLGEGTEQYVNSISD

[2] = target: T2, Sentrin-specific protease 8 (Homo sapiens, UniProt Q96LD8);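 also: luminescence read-out of SENP8 inhibition, dose-response confirmation following an ultra-high-throughput screen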
T2 sequence (Q96LD8 whole entry): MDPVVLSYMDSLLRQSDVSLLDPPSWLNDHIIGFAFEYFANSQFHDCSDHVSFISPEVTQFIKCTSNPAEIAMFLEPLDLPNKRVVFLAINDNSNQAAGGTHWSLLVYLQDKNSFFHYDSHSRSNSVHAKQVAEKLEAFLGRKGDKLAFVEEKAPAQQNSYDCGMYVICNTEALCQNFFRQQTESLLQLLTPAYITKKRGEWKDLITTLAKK

[3] = target: T3, Sentrin-specific protease 7 (Homo sapiens, UniProt Q9BQF6);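 also: Luminescence-based dose-response confirmation of ultra-high-throughput screening hits, measuring inhibition of SENP7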
T3 sequence (Q9BQF6 whole entry): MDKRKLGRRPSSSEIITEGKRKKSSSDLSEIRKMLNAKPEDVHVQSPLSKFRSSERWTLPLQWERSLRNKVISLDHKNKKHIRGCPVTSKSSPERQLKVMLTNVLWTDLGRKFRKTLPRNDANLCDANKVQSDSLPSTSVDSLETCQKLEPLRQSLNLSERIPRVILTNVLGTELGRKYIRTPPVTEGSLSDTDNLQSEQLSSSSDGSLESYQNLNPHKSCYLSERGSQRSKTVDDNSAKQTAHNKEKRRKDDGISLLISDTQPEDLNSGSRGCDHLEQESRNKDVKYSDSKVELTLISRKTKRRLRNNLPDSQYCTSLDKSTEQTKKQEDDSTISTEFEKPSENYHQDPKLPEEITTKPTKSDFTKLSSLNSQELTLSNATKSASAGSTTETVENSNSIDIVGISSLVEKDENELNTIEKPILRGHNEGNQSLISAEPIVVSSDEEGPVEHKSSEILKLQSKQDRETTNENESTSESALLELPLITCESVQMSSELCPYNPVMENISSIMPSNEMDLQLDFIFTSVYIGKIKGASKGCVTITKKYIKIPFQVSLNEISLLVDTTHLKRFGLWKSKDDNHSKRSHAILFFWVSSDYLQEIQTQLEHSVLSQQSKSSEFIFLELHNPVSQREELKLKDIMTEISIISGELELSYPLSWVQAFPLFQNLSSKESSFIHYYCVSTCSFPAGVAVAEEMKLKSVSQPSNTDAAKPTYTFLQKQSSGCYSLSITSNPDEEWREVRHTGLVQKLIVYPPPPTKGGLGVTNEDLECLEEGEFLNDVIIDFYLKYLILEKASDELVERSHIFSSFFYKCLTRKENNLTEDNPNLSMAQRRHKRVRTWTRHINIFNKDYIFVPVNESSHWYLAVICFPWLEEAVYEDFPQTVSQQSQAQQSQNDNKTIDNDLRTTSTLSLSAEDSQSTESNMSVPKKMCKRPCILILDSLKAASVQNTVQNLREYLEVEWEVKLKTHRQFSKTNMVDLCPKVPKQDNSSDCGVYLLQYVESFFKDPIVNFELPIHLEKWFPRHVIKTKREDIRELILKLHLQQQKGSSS

[4] = target: T4, Caspase-3 (Homo sapiens, UniProt P42574);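 also: Dose-response selectivity test against caspase-3 for candidate inhibitors of sentrin-specific proteases (SENPs)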
T4 sequence (P42574 whole entry): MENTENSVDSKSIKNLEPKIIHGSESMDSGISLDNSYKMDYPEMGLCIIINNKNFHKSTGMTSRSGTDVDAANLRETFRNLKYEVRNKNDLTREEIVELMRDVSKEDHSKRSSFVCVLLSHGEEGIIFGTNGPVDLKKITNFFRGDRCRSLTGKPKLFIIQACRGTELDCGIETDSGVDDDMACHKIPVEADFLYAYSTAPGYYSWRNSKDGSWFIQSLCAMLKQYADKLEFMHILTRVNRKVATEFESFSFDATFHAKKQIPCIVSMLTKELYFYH

Measured: IC50

O=c1[nH]c(N2CCOCC2)cc2ccccc12
active: [1] < 1.55 µM | [2] 2.12 µM | [3] 1.96 µM | [4] 1.59 µM

CCC(COC)Oc1cc(NCc2ccccc2)c2ncn(C(C)C)c2c1 (configuration not stated)
active: [1] 3.62 µM | [2] 4.26 µM | [3] 5.61 µM | [4] 6.47 µM

O=C1c2ccccc2C(=O)C12OC2c1cccc2ccccc12 (configuration not stated)
active: [1] 2.37 µM | [2] 4.53 µM | [3] 2.86 µM | [4] 91.9 µM
